Measurements published in ChEMBL document CHEMBL1134717 (Bioorg Med Chem Lett, 2001).

Assays:
[1] = biological target: Mu-type opioid receptor (Cavia porcellus, UniProt P97266); assay: Binding affinity towards Opioid receptor mu 1 of guinea pig brain membranes using radioligand 0.25 nM [3H]DAMGO
[2] = biological target: Kappa-type opioid receptor (Cavia porcellus, UniProt P41144); assay: Binding affinity towards guinea pig Opioid receptor kappa 1 using radioligand [3H]U-69593
Kappa-type opioid receptor, sequence (P41144 whole entry): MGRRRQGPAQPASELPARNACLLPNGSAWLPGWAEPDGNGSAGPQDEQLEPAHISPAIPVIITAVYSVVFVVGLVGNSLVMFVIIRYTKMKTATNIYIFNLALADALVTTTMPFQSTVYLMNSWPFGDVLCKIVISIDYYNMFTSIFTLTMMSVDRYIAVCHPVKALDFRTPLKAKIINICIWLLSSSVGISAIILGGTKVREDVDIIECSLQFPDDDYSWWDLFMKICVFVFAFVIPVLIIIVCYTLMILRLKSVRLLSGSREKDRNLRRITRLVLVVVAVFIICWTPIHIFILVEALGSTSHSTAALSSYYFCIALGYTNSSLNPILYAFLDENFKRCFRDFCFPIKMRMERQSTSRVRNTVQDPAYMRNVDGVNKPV

Mu-type opioid receptor, sequence (P97266 whole entry): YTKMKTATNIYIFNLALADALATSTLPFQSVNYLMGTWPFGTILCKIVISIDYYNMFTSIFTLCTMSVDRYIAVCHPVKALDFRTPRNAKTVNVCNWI

`CN1CC[C@]23c4c5ccc(C(N)=O)c4OC2C(O)C=C[C@H]3[C@H]1C5` (stereo partly drawn) showed a Ki [1] of 34 nM and a Ki [2] of 2000 nM.
`CNC(=O)c1ccc2c3c1OC1C(O)C=C[C@H]4[C@@H](C2)N(C)CC[C@]314` (stereo partly drawn) showed a Ki [1] of 440 nM and a Ki [2] greater than 10000 nM.
`CN(C)C(=O)c1ccc2c3c1OC1C(O)C=C[C@H]4[C@@H](C2)N(C)CC[C@]314` (stereo partly drawn) showed a Ki [2] greater than 10000 nM.
`NC(=O)c1ccc2c3c1O[C@H]1C(=O)CC[C@@]4(O)[C@@H](C2)N(CC2CC2)CC[C@]314` showed a Ki [1] of 1.9 nM and a Ki [2] of 22 nM.
In the case of `C[C@H]1[C@H]2Cc3ccc(O)cc3[C@]1(C)CCN2CC1CC1` [CYCLAZOCINE], the Ki [2] is reported as 0.18 nM.
